Here are results for eight compounds from patent US6239131A, “1,5 Benzodiazepine derivatives” (Zeria Pharmaceutical Co., Ltd., priority 1996, dated 2001).

For one experiment, the target named is T1, CCK-B receptors (Cavia porcellus, UniProt H0VZC5).
T1 construct: Cerebral cortices were removed from Hartley-strain guinea pigs, the cerebral cortices were homogenized; from tissue; host or cells: cerebral cortex of Hartley-strain guinea pigs, crude membrane pellet
T1 sequence (H0VZC5 1-426): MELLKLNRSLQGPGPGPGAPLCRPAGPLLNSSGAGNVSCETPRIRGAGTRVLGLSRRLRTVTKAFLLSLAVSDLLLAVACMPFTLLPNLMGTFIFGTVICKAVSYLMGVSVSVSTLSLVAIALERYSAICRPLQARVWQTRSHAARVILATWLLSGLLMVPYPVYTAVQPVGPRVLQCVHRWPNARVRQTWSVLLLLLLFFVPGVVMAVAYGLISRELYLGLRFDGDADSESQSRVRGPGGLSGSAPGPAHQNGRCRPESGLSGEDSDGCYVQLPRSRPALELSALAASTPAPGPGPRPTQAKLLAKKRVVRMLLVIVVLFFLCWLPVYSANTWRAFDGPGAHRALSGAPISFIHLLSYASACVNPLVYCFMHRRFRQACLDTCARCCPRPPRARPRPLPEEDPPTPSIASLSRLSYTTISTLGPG
As to the kind of experiment: Measurement of Binding Affinity for CCK-B Receptors. Also on record: species or system Hartley-strain guinea pig.

Experiment [1] concerns pentagastrin-stimulated acid secretion. Kind of experiment: Measurement of Inhibition of Pentagastrin-stimulated Acid Secretion. Type of experiment: in vivo, male Sprague-Dawley (SD)-strain rats. The following applies: intraduodenal, rat, acid output from 1 to 4 hours after administration, pentagastrin 15 μg/kg/hr. The procedure: Male Sprague-Dawley (SD)-strain rats were used. Each rat was operated to ligate the pylorus, and equip with a duodenal catheter and gastric fistula under a ether anesthesia. After the operation, each rat was placed in a Bollman-type cage and continuously infused pentagastrin (15 μg/kg/hr) through the tail vein. Test compounds were suspended in 0.5% aqueous sodium carboxymethylcellulose (which hereinafter be abbreviated as "vehicle"). Vehicle or test compound was administered through the intraduodenal catheter 1 hour after the beginning of pentagastrin infusion. Acidity of the collected gastric juice was measured by an automatic titillation device. Acid output was determined by multiplying the volume by the acidity of gastric juice. […] [formula]

For another experiment, the target named is T2, CCK-A receptors (Cavia porcellus, UniProt Q63931).
T2 construct: Pancreases were removed from Hartley-strain guinea pigs, the pancreases were homogenized; from tissue; host or cells: pancreas of Hartley-strain guinea pigs, crude membrane pellet
T2 sequence (Q63931 1-430): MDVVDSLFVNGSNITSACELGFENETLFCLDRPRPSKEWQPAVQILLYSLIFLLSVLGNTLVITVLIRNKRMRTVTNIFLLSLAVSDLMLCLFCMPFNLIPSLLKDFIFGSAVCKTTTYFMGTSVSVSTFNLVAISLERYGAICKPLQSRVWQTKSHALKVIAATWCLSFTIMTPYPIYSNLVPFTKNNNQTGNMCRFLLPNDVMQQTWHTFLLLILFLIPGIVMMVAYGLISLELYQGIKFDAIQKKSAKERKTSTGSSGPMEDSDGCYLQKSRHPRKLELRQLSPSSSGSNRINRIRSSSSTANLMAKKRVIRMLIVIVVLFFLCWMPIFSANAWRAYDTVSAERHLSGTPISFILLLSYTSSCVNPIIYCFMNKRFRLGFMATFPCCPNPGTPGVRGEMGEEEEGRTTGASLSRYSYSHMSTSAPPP
Kind of experiment: Measurement of Binding Affinity for CCK-A Receptors. The note with it: inhibition of specific [3H]L-364,718 (0.2 nM) binding; guinea pig pancreas; 25° C., 2 hours; pH 6.5. Also on record: species or system Hartley-strain guinea pig. The procedure: Pancreases were removed from Hartley-strain guinea pigs, the pancreases were homogenized in 40 volumes of 10 mM PIPES buffer (pH 6.5, which hereinafter be abbreviated as "solvent") containing 1 mM EGTA, 30 mM MgCl2, 0.02% bacitracin, 0.02% soybean trypsin inhibitor and 0.3 M sucrose. The homogenate was filtrated through gauze and centrifuged at 50000×g for 10 minutes. Solvent was added to the pellet and recentrifuged as above. The final pellet thus obtained was homogenized in 40 volumes of solvent and used as the receptor preparation.
Binding assay was measured as follows. Fifty μl of [^3 H]L-364, 718 (at the final concentration of 0.2 nM) and 900 μl of the receptor preparation (50 μg protein/tube) were added to 50 μl of solvent, or L-364, 718 (1 μM) or a test compound. This mixture was incubated at 25° C. for 2 hours. After the reaction, the mixture was filtrated through Whatman GF/B filter presoaked in 0.1% BSA (bovine serum albumin). The filter was washed with 3 ml of ice-cold 10 mM PIPES buffer (pH 6.5) three times, immediately after the filtration. The filter was soaked in the ACS-II scintillation cocktail for one day and radioactivity was measured using a liquid scintillation counter. Non-specific binding was defined as the radioactivity in the presence of 1 μM L-364, 718. Specific binding was defined as the difference between total binding (used solvent without L-364, 718) and non-specific binding. lnhibitor dissociation constant (Ki) of each test compound was determined from the inhibition of specific [^3 H]L-364, 718 binding.

Where [2] appears, read: inhibition of specific [3H]CCK-8 (1.0 nM) binding, guinea pig cerebral cortex, 25° C., 2 hours, pH 6.5, read-out: Ki (CCK-B receptors).

The structures appear in SMILES notation. Read-outs that look alike come from different tables or passages of the source.

The Ki is the dissociation constant of the complex between target and ligand, obtained from inhibition or displacement. One may read the inhibition in vivo as how much of the control response was suppressed. A low value points to little suppression.

Method for CCK-B receptors: Cerebral cortices were removed from Hartley-strain guinea pigs, the cerebral cortices were homogenized in 50 volumes of 50 mM Tris-HCl buffer (pH7.4) and centrifuged at 50000×g for 10 minutes. The Tris-HCl buffer was added to the pellet and recentrifuged as above two times. The final pellet was rehomogenized in 10 mM HEPES buffer (pH 6.5, which hereinafter be abbreviated as "solvent") containing 5 mM MgCl2, 1 mM EGTA, 0.25 mg/ml bacitracin and 130 mM NaCl, and used as the receptor preparation.
Binding assay was measured as follows. Fifty μl of [^3 H]CCK-8 (at the final concentration of 1.0 nM) and 900 μl of the receptor preparation (800 μg protein/tube) were added to 50 μl of either solvent, CCK-8 (1 μM) or a test compound. These ware reacted at 25° C. for 2 hours. After the reaction, the mixture was filtrated through Whatman GF/B filter presoaked in 0.1% BSA. The filter was washed with 3 ml of ice-cold 50 mM Tris-HCl buffer (pH 7.4) four times, immediately after the filtration. The filter was soaked in the ACS-II scintillation cocktail for a day and radioactivity was measured using a liquid scintillation counter. Non-specific binding was defined as the radioactivity in the presence of 1 μM CCK-8. Specific binding was defined as the difference between total binding (used solvent without CCK-8) and non-specific binding. Inhibitor dissociation constant (Ki) of each test compound was determined from the inhibition of specific [^3 H]CCK-8 binding.

Turning to `CC(C)(C)C(=O)CN1C(=O)C(NC(=O)Nc2cccc(SCC(=O)O)c2)CN(c2ccccc2)c2ccccc21` (stereo not drawn) [Example 33, 3-[3-(1-tert-butylcarbonylmethyl-2-oxo-5-phenyl-1,3,4,5-tetrahydro-2H-1,5-benzodiazepin-3-yl)ureido]phenylthioacetic acid], the values for the Ki on CCK-B receptors (setting [2]) and at CCK-A receptors were 0.14 nM and 244 nM, respectively. In experiment [1], 3 mg/kg produced 77.2% inhibition in vivo.

In the case of `Cc1ccc2c(c1)N(CC(=O)c1ccccc1C)C(=O)C(NC(=O)Nc1ccc(C)c(C(=O)O)c1)CN2C(=O)CC(C)(C)C` (stereo not drawn) [Example 120, 5-[3-[1-(2-toluoylmethyl)-2-oxo-5-(3,3-dimethylbutanoyl)-8-methyl-1,3,4,5-tetrahydro-2H-1,5-benzodiazepin-3-yl]ureido]-2-methylbenzoic acid], the Ki on CCK-B receptors (setting [2]) came to 0.75 nM; at CCK-A receptors it was 506 nM. The inhibition in vivo at 30 mg/kg in experiment [1] was determined as 88.3%.

`Cc1cccc(NC(=O)N[C@@H]2N=C(c3ccccc3)c3ccccc3N(C)C2=O)c1` [L-365, 260, reference compound]: the figures for the inhibition constant Ki at CCK-B receptors and at CCK-A receptors were 24.6 nM and 0.64 nM, respectively. In experiment [1], this compound gave an inhibition in vivo at 30 mg/kg of 46.5%.

In the case of `CC(C)(C)C(=O)CN1C(=O)C(NC(=O)Nc2cccc(C(=O)O)c2)CN(c2ccccc2F)c2ccccc21` (stereo not drawn) [Example 101, 3-[3-[1-tert-butylcarbonylmethyl-2-oxo-5-(2-fluorophenyl)-1,3,4,5-tetrahydro-2H-1,5-benzodiazepin-3-yl]ureido]benzoic acid], the Ki on CCK-B receptors (setting [2]) came to 1.13 nM; at CCK-A receptors it was 472 nM. The inhibition in vivo at 3 mg/kg in experiment [1] stood at 78%.

Take `Cc1ccc2c(c1)N(CC(=O)c1ccccc1C)C(=O)C(NC(=O)Nc1cccc(C(=O)O)c1)CN2C(=O)C1CCCC1` (stereo not drawn) [Example 87, 3-[3-[1-(2-toluoylmethyl)-2-oxo-5-cyclopentylcarbonyl-8-methyl-1,3,4,5-tetrahydro-2H-1,5-benzodiazepin-3-yl]ureido]benzoic acid]: the inhibition constant Ki was determined as 1.39 nM on CCK-B receptors (setting [2]) and 120 nM on CCK-A receptors. The compound also yielded an inhibition in vivo at 30 mg/kg in experiment [1] of 80.1%.

For `CC(C)(C)C(=O)CN1C(=O)C(NC(=O)Nc2cccc(C(=O)O)c2)CN(c2ccccc2)c2ccccc21` (racemic) [Example 70 (racemate), 3-[3-(1-tert-butylcarbonylmethyl-2-oxo-5-phenyl-1,3,4,5-tetrahydro-2H-1,5-benzodiazepin-3-yl)ureido]benzoic acid], the Ki at CCK-B receptors (setting [2]) was found to be 0.77 nM; on CCK-A receptors, 303 nM. The inhibition in vivo at 3 mg/kg in experiment [1] came out at 76.5%.

`Cc1ccc2c(c1)N(CC(=O)c1ccccc1C)C(=O)C(NC(=O)Nc1cccc(C(=O)O)c1)CN2C(=O)CC(C)(C)C` (stereo not drawn) [Example 109, 3-[3-[1-(2-toluoylmethyl)-2-oxo-5-(3,3-dimethylbutanoyl)-8-methyl-1,3,4,5-tetrahydro-2H-1,5-benzodiazepin-3-yl]ureido]benzoic acid]: the Ki stood at 1.81 nM on CCK-B receptors (setting [2]) and 346 nM on CCK-A receptors. Moreover, in experiment [1], the inhibition in vivo at 1 mg/kg came out at 54%.

Regarding `Cc1ccc2c(c1)N(CC(=O)c1ccccc1C)C(=O)C(NC(=O)Nc1cccc(C(=O)O)c1)CN2C(=O)c1cccs1` (stereo not drawn) [Example 104, 3-[3-[1-(2-toluoylmethyl)-2-oxo-5-(2-thenoyl)-8-methyl-1,3,4,5-tetrahydro-2H-1,5-benzodiazepin-3-yl]ureido]benzoic acid], the figures for the inhibitory constant (Ki) at CCK-B receptors (setting [2]) and at CCK-A receptors were 0.59 nM and 130 nM, respectively. In experiment [1], this compound yielded an inhibition in vivo at 1 mg/kg of 58%.
